Activity calls are given as the source filed them. No cut-off for these calls is given here.
Assays:
[1] = Drug distribution in Sprague-Dawley rat spleen at 10 mg/kg, po measured at 1 hr by LC-MS/MS analysis; format: ADME, organism-based; details: read-out: Ct
[2] = Toxicity in SCID mouse xenografted with human VCaP cells assessed as loss of body weight at 1 to 3 mg/kg, po administered daily 5 times a week for 4 weeks; format: organism-based; details: in vivo, 672 h, dose 1-3 mg/kg
[3] = Toxicity in immune-competent Sprague-Dawley rat assessed as change in total bilirubin level at 1 to 10 mg/kg, po administered twice a week for 5 weeks; format: organism-based; details: in vivo, 840 h, dose 1-10 mg/kg
[4] = Plasma protein binding in dog by LC-MS analysis; format: ADME, cell-free, Canis lupus familiaris; details: read-out: PPB (converted)
[5] = Drug concentration in SCID mouse tumor at 1 mg/kg, po measured at 1 hr by LC-MS/MS analysis; format: ADME, organism-based, Neoplasm; details: read-out: Ct
[6] = Drug distribution in SCID mouse plasma at 1 mg/kg, po measured at 24 hrs by LC-MS/MS analysis; format: ADME, organism-based
[7] = Toxicity in immune-competent Sprague-Dawley rat assessed as change in alkaline phosphatase level at 1 to 10 mg/kg, po administered twice a week for 5 weeks; format: organism-based; details: in vivo, 840 h, dose 1-10 mg/kg
[8] = Toxicity in immune-competent Sprague-Dawley rat assessed as decrease in glucose level at 10 mg/kg, po administered twice a week for 5 weeks; format: organism-based; details: in vivo, 840 h
[9] = Drug distribution in Sprague-Dawley rat plasma at 3 mg/kg, po measured at 24 hrs by LC-MS/MS analysis; format: ADME, organism-based
[10] = Toxicity in immune-competent Sprague-Dawley rat assessed as change in monocyte at 1 to 10 mg/kg, po administered twice a week for 5 weeks; format: organism-based; details: in vivo, 840 h, dose 1-10 mg/kg
[11] = Drug distribution in SCID mouse liver at 1 mg/kg, po measured at 6 hrs by LC-MS/MS analysis; format: ADME, organism-based; details: read-out: Ct
[12] = Drug distribution in Sprague-Dawley rat plasma at 3 mg/kg, po measured at 6 hrs by LC-MS/MS analysis; format: ADME, organism-based
[13] = Drug distribution in Sprague-Dawley rat plasma at 10 mg/kg, po measured at 6 hrs by LC-MS/MS analysis; format: ADME, organism-based
[14] = Drug distribution in SCID mouse spleen at 3 mg/kg, po measured at 6 hrs by LC-MS/MS analysis; format: ADME, organism-based; details: read-out: Ct
[15] = Toxicity in SCID mouse xenografted with human VCaP cells assessed as loss of body weight at 1 to 3 mg/kg, po measured up to 48 days; format: organism-based; details: in vivo, 1152 h, dose 1-3 mg/kg, time < 48 day
[16] = Drug distribution in Sprague-Dawley rat kidney at 3 mg/kg, po measured at 24 hrs by LC-MS/MS analysis; format: ADME, organism-based; details: read-out: Ct
[17] = Drug distribution in SCID mouse liver at 1 mg/kg, po measured at 24 hrs by LC-MS/MS analysis; format: ADME, organism-based; details: read-out: Ct
[18] = Drug distribution in SCID mouse spleen at 3 mg/kg, po measured at 24 hrs by LC-MS/MS analysis; format: ADME, organism-based; details: read-out: Ct
[19] = Drug distribution in Sprague-Dawley rat spleen at 10 mg/kg, po measured at 24 hrs by LC-MS/MS analysis; format: ADME, organism-based; details: read-out: Ct
[20] = Oral bioavailability in Sprague-Dawley rat at 3 mg/kg measured upto 24 hrs by LC/MS-MS analysis; format: ADME, organism-based; details: in vivo
[21] = Drug distribution in SCID mouse liver at 0.3 mg/kg, po measured at 6 hrs by LC-MS/MS analysis; format: ADME, organism-based; details: read-out: Ct
[22] = Drug distribution in SCID mouse tumor at 3 mg/kg, po measured at 1 hr by LC-MS/MS analysis; format: ADME, organism-based, Neoplasm; details: read-out: Ct
CWR22R = assay: Antitumor activity against human 22Rv1 cells xenografted in SCID mouse assessed as reduction in BRD4 level in tumor at 1 to 3 mg/kg, po measured at 6 to 24 hrs by Western blotting analysis; format: functional, organism-based; details: dose 1-3 mg/kg, time 6-24 hrs
[23] = Drug distribution in SCID mouse plasma at 3 mg/kg, po measured at 24 hrs by LC-MS/MS analysis; format: ADME, organism-based
[24] = Toxicity in immune-competent Sprague-Dawley rat assessed as change in total protein level at 1 to 10 mg/kg, po administered twice a week for 5 weeks; format: organism-based; details: in vivo, 840 h, dose 1-10 mg/kg
[25] = Toxicity in immune-competent Sprague-Dawley rat assessed as change in lymphocyte at 1 to 10 mg/kg, po administered twice a week for 5 weeks; format: organism-based; details: in vivo, 840 h, dose 1-10 mg/kg
[26] = Drug concentration in SCID mouse plasma at 1 mg/kg, po measured at 24 hrs by LC-MS/MS analysis; format: ADME, organism-based
[27] = Metabolic stability in human liver microsome assessed as half life measured upto 60 mins in presence of NADPH by LC-MS/MS analysis; format: ADME; details: liver microsomes
[28] = Volume of distribution at steady state in Sprague-Dawley rat at 1 mg/kg, iv measured upto 24 hrs by LC/MS-MS analysis; format: ADME, organism-based; details: in vivo, read-out: Vdss
[29] = Toxicity in male BALB/c mouse assessed as body weight loss at 30 mg/kg, po administered twice a week for 5 to 6 weeks; format: organism-based; details: in vivo, time 5-6 weeks
[30] = Metabolic stability in rat plasma assessed as half life measured upto 120 mins by LC-MS/MS analysis; format: ADME, cell-free
[31] = Toxicity in female BALB/c mouse assessed as body weight loss at 30 mg/kg, po administered twice a week for 5 to 6 weeks; format: organism-based; details: in vivo, time 5-6 weeks
[32] = Drug distribution in Sprague-Dawley rat kidney at 3 mg/kg, po measured at 1 hr by LC-MS/MS analysis; format: ADME, organism-based; details: read-out: Ct
VCaP = assay: Antitumor activity against human VCaP cells xenografted in SCID mouse assessed as tumor growth inhibition at 3 mg/kg, po administered for 4 week; format: functional; details: 672 h, time 4 weeks, read-out: TGI
[33] = Toxicity in immune-competent Sprague-Dawley rat assessed as change in white blood cells count at 1 to 10 mg/kg, po administered twice a week for 5 weeks; format: organism-based; details: in vivo, 840 h, dose 1-10 mg/kg
[34] = Drug concentration in SCID mouse tumor at 1 mg/kg, po measured at 6 hrs by LC-MS/MS analysis; format: ADME, organism-based, Neoplasm; details: read-out: Ct
[35] = Toxicity in immune-competent Sprague-Dawley rat assessed as change in red blood cells count at 1 to 10 mg/kg, po administered twice a week for 5 weeks; format: organism-based; details: in vivo, 840 h, dose 1-10 mg/kg
[36] = Drug distribution in Sprague-Dawley rat kidney at 10 mg/kg, po measured at 6 hrs by LC-MS/MS analysis; format: ADME, organism-based; details: read-out: Ct
[37] = Drug distribution in Sprague-Dawley rat liver at 10 mg/kg, po measured at 24 hrs by LC-MS/MS analysis; format: ADME, organism-based; details: read-out: Ct
[38] = Drug distribution in Sprague-Dawley rat liver at 3 mg/kg, po measured at 24 hrs by LC-MS/MS analysis; format: ADME, organism-based; details: read-out: Ct
[39] = Drug distribution in SCID mouse plasma at 0.3 mg/kg, po measured at 6 hrs by LC-MS/MS analysis; format: ADME, organism-based
[40] = molecular target: Voltage-gated inwardly rectifying potassium channel KCNH2 (Homo sapiens, UniProt Q12809); assay: Inhibition of hERG expressed in HEK293 cells; format: toxicity, cell-based
Voltage-gated inwardly rectifying potassium channel KCNH2, sequence (Q12809 whole entry): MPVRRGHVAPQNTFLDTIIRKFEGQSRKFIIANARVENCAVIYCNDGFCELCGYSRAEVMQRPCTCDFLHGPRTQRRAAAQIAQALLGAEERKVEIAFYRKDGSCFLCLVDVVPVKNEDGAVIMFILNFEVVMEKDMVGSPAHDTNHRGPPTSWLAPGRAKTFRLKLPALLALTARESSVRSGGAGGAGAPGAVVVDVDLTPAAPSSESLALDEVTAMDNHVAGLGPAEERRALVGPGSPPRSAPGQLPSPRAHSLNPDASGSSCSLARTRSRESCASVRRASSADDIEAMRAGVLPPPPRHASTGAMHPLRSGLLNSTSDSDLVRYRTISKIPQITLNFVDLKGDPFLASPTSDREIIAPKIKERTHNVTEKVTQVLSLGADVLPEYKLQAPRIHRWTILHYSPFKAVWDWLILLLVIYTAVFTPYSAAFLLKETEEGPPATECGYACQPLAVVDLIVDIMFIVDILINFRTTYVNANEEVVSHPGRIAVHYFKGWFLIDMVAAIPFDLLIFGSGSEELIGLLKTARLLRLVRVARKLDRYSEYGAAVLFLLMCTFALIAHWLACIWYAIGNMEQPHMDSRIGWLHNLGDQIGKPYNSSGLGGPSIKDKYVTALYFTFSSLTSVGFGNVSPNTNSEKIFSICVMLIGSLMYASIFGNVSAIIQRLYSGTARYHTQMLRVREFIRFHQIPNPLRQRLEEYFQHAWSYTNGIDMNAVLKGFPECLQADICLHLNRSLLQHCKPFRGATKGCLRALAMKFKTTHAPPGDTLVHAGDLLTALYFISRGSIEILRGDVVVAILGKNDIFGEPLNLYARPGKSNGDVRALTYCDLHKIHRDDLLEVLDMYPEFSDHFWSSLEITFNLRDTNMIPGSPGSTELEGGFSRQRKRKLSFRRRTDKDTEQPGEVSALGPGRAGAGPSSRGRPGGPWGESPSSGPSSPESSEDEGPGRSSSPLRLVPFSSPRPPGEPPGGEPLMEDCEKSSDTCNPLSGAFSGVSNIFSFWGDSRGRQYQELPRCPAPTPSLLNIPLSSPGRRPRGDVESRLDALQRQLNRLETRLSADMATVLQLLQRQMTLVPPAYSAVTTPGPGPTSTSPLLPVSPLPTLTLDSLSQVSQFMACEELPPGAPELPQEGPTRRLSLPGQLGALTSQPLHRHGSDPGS

- concentration at 1 h [1]: 1990 ng/g
- fraction unbound [4]: 0.009
- concentration at 1 h [5]: 30.8 ng/g
- concentration at 24 h [6]: 3.3 ng/mL
- concentration at 24 h [9]: 1.3 ng/mL
- concentration at 6 h [11]: 301 ng/mL
- concentration at 6 h [12]: 13.1 ng/mL
- concentration at 6 h [13]: 41.4 ng/mL
- concentration at 6 h [14]: 738 ng/mL
- concentration at 24 h [16]: 2.1 ng/g
- concentration at 24 h [17]: 13.7 ng/mL
- concentration at 24 h [18]: 21.2 ng/mL
- concentration at 24 h [19]: 12.6 ng/g
- bioavailability [20]: 67%
- concentration at 6 h [21]: 86.8 ng/mL
- concentration at 1 h [22]: 249 ng/g
- concentration at 24 h [23]: 12.7 ng/mL
- concentration at 24 h [26]: 2.8 ng/mL
- half-life [27]: 48 min
- Vd [28]: 4.9 L/kg
- half-life [30]: 48 min
- concentration at 1 h [32]: 514 ng/g
- concentration at 6 h [34]: 12.6 ng/g
- concentration at 6 h [36]: 224 ng/g
- concentration at 24 h [37]: 20.2 ng/g
- concentration at 24 h [38]: 8.4 ng/g
- concentration at 6 h [39]: 12.7 ng/mL
Compound: CC(=O)N1CCc2c(c(N3CCCc4cc(-c5cnn(C)c5)c(C(F)F)cc43)nn2[C@H]2CC[C@H](CN3Cc4cc5c(cc4C3)C(=O)N(C3CCC(=O)NC3=O)C5=O)CC2)C1 (some centres not stated)
- Activity [2]: > 8%
- Activity [3]: Non-Toxic
- Activity [7]: Non-Toxic
- Activity [8]: Non-Toxic
- Activity [10]: Non-Toxic
- Activity [15]: < 7%
- Activity (CWR22R): Active
- Activity [24]: Non-Toxic
- Activity [25]: Non-Toxic
- Activity [29]: < 5%
- Activity [31]: < 5%
- inhibition in vivo at 3 mg/kg (VCaP): 57%
- Activity [33]: Non-Toxic
- Activity [35]: Non-Toxic
- IC50 [40]: > 30 µM

Reference: ChEMBL document CHEMBL5543112, “Discovery of CBPD-268 as an Exceptionally Potent and Orally Efficacious CBP/p300 PROTAC Degrader Capable of Achieving Tumor Regression” (J Med Chem, 2024)
